Our source for the % of inhibition and % of control values is ChEMBL document CHEMBL5465560, “Selectivity Literature for EUbOPEN Chemogenomic Library” (2024).

For test [1], the target named is Dual specificity mitogen-activated protein kinase kinase 1 (Homo sapiens, UniProt Q02750). In words: Selectivity interaction (Rxn Biology Kinase assay) EUB0001632a MAP2K1. To be noted: at 10 µM.
Test [2] concerns the target Serine/threonine-protein kinase Nek6 (Homo sapiens) (UniProt Q9HC98). The test is described as follows: Selectivity interaction (Kinase panel (Z-LYTE Assay)) EUB0001632a NEK6. To be noted: at 10 µM.
For test [3], the target named is Mitogen-activated protein kinase kinase kinase kinase 1 (Homo sapiens) (UniProt Q92918). The test is described as follows: Selectivity interaction (KinomeScan (DiscoverX)) EUB0000595a MAP4K1. Particulars: at 10 µM.
Chain of Mitogen-activated protein kinase kinase kinase kinase 1 (Homo sapiens) (Q92918 whole entry, looked up): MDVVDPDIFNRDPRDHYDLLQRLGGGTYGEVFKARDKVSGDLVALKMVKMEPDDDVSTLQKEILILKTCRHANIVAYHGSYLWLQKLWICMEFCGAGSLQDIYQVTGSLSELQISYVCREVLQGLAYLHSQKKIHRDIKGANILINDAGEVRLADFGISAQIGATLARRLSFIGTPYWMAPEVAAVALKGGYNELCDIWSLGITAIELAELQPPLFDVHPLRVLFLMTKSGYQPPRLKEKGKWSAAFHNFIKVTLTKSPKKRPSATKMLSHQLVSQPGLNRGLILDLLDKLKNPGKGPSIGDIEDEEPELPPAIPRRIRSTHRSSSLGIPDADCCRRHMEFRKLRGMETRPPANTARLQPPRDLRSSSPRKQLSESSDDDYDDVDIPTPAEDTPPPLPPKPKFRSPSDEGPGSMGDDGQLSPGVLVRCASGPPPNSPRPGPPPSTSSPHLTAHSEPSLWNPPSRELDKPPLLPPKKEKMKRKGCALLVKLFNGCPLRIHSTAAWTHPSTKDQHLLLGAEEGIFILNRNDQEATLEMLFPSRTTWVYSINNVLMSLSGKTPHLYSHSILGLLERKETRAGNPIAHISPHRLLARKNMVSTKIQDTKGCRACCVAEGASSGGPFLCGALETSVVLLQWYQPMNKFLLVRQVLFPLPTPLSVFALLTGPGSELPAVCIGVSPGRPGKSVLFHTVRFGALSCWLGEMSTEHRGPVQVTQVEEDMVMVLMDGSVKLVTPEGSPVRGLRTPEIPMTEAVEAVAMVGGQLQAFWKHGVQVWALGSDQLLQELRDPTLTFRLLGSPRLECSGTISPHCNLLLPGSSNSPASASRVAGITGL
Test [4] has as its target Serine/threonine-protein kinase PAK 1 (Homo sapiens) (UniProt Q13153). In words: Selectivity interaction (KinomeScan (DiscoverX)) EUB0001619a PAK1. To be noted: at 1 µM.
Test [5] deals with Serine/threonine-protein kinase PAK 2 (Homo sapiens) (UniProt Q13177). In words: Selectivity interaction (KinomeScan (DiscoverX)) EUB0000695a PAK2. Particulars: at 100 nM.
Test [6] concerns the target T1, Serine/threonine-protein kinase D3 (Homo sapiens) (UniProt O94806).
T1 sequence (whole entry): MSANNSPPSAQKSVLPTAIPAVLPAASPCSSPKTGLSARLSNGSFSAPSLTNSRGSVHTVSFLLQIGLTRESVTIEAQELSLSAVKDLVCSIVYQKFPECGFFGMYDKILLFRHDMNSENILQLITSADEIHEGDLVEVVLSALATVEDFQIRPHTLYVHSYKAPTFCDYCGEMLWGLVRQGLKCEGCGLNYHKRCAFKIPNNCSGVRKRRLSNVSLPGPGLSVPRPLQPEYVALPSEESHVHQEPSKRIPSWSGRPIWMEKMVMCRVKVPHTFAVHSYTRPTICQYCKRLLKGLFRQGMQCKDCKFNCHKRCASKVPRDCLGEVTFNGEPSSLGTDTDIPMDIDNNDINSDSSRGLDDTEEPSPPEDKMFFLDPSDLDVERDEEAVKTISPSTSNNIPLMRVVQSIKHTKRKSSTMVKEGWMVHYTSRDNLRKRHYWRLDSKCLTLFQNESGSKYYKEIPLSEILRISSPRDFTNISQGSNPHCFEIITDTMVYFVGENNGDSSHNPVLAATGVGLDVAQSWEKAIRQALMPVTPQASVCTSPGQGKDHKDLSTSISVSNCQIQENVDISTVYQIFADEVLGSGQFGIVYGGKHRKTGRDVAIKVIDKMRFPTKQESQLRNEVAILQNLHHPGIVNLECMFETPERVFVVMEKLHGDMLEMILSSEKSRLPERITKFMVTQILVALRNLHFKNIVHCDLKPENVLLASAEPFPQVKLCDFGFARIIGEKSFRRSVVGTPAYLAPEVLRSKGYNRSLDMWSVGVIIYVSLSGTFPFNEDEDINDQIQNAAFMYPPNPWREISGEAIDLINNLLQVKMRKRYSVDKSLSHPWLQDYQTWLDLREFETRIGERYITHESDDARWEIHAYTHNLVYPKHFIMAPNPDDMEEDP
The test is described as follows: Selectivity interaction (SelectScreen profiling (Invitrogen)) EUB0000607a PRKD3. Particulars: at 2 µM.

Test [7] deals with Protein-tyrosine kinase 6 (Homo sapiens, UniProt Q13882). The test is described as follows: Selectivity interaction (KinaseProfiler screening (Millipore)) EUB0000601a PTK6. Particulars: at 3 µM.
Test [8] concerns the target Tyrosine-protein kinase ABL1 (Homo sapiens, UniProt P00519). The test is described as follows: Selectivity interaction (ActivX KiNativ screen (kinase selectivity in THP-1 cell lysates)) EUB0000639a ABL1. Type of test: subcellular. To be noted: lysate, at 0.01 µM.
For test [9], the target named is T2, NUAK family SNF1-like kinase 1 (Homo sapiens) (UniProt O60285).
T2 sequence (whole entry): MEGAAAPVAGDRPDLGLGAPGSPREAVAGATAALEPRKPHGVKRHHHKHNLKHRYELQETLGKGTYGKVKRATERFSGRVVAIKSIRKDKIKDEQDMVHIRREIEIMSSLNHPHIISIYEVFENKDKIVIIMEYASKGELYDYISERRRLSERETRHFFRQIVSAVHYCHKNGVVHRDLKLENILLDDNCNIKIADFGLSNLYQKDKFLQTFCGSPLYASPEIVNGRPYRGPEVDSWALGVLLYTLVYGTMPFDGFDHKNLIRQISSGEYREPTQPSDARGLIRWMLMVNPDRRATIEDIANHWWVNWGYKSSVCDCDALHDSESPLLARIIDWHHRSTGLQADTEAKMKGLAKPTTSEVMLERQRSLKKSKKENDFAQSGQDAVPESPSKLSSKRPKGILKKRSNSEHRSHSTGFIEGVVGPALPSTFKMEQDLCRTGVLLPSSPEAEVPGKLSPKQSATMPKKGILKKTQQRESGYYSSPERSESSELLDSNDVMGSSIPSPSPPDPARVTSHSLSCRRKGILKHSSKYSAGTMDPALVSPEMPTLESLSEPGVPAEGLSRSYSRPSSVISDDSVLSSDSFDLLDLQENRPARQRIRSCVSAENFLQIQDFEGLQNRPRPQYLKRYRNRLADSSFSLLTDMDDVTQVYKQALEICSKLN
The test is described as follows: Selectivity interaction (Kinase panel (Invitrogen)) EUB0000639a NUAK1. To be noted: at 200 nM.

Test [10] has as its target T3, MAP kinase-activated protein kinase 5 (Homo sapiens) (UniProt Q8IW41).
T3 sequence (whole entry): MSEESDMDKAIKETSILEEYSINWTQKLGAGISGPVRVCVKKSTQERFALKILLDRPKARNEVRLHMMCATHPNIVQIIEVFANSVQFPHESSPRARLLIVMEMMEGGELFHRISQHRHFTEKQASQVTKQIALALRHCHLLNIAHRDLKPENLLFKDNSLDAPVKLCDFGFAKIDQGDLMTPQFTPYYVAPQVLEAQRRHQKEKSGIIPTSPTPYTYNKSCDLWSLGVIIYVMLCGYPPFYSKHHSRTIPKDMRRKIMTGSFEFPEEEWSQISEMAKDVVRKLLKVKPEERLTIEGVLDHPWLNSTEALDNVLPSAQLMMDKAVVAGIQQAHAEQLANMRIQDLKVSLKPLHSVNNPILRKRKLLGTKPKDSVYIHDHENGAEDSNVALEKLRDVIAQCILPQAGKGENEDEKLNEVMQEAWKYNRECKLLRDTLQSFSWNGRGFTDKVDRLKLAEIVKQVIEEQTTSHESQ
In words: Selectivity interaction (Kinase panel (literature)) EUB0001199aCl MAPKAPK5. To be noted: at 1 µM.

The next test deals with Misshapen-like kinase 1 (Homo sapiens, UniProt Q8N4C8). In words: Selectivity interaction (KinomeScan (DiscoverX)) EUB0001049a MINK1. To be noted: at 1 µM.
Chain of Misshapen-like kinase 1 (Q8N4C8 whole entry, looked up): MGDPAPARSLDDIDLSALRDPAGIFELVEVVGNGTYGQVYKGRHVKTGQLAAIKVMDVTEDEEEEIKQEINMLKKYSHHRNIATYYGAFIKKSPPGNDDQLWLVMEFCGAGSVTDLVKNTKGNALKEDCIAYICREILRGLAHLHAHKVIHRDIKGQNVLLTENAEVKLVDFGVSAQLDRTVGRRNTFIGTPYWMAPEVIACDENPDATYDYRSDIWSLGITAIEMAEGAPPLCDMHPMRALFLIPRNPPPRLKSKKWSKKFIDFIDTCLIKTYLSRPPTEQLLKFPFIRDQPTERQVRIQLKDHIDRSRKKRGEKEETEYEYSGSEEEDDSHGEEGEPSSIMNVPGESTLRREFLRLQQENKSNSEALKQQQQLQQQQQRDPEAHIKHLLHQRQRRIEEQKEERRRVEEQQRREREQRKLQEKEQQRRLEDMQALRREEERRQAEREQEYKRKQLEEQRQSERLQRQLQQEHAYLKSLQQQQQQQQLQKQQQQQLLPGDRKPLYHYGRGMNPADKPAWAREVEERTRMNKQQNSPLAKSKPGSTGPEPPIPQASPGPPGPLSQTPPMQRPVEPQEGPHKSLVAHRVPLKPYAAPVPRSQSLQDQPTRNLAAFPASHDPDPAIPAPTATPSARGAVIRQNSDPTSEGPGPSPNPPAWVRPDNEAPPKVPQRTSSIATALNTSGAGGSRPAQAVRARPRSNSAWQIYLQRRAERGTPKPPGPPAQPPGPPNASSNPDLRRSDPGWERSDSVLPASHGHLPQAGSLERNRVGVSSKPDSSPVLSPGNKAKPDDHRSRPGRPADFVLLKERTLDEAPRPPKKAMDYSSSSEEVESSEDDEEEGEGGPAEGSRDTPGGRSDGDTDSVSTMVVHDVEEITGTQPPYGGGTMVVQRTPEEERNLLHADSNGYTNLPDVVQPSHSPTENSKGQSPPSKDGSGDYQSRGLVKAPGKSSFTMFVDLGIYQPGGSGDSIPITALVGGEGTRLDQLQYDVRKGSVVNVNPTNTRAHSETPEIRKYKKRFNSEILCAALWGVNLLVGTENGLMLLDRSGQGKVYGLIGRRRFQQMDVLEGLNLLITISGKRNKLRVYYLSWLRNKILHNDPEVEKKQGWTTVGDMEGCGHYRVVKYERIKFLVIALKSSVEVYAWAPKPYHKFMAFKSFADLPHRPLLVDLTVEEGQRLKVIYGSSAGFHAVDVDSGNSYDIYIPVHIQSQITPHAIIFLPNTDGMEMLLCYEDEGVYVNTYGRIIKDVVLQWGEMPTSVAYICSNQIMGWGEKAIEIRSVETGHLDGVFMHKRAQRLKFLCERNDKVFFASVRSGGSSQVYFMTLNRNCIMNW
The target in test [11] is Dual specificity protein kinase CLK3 (Homo sapiens, UniProt P49761). Particulars: at 1 µM.
For test [12], the target named is ALK tyrosine kinase receptor (Homo sapiens, UniProt Q9UM73). In words: Selectivity interaction (KinomeScan (DiscoverX)) EUB0000655a ALK. To be noted: at 10 µM.
Chain of ALK tyrosine kinase receptor (Q9UM73 19-1620 limits assumed): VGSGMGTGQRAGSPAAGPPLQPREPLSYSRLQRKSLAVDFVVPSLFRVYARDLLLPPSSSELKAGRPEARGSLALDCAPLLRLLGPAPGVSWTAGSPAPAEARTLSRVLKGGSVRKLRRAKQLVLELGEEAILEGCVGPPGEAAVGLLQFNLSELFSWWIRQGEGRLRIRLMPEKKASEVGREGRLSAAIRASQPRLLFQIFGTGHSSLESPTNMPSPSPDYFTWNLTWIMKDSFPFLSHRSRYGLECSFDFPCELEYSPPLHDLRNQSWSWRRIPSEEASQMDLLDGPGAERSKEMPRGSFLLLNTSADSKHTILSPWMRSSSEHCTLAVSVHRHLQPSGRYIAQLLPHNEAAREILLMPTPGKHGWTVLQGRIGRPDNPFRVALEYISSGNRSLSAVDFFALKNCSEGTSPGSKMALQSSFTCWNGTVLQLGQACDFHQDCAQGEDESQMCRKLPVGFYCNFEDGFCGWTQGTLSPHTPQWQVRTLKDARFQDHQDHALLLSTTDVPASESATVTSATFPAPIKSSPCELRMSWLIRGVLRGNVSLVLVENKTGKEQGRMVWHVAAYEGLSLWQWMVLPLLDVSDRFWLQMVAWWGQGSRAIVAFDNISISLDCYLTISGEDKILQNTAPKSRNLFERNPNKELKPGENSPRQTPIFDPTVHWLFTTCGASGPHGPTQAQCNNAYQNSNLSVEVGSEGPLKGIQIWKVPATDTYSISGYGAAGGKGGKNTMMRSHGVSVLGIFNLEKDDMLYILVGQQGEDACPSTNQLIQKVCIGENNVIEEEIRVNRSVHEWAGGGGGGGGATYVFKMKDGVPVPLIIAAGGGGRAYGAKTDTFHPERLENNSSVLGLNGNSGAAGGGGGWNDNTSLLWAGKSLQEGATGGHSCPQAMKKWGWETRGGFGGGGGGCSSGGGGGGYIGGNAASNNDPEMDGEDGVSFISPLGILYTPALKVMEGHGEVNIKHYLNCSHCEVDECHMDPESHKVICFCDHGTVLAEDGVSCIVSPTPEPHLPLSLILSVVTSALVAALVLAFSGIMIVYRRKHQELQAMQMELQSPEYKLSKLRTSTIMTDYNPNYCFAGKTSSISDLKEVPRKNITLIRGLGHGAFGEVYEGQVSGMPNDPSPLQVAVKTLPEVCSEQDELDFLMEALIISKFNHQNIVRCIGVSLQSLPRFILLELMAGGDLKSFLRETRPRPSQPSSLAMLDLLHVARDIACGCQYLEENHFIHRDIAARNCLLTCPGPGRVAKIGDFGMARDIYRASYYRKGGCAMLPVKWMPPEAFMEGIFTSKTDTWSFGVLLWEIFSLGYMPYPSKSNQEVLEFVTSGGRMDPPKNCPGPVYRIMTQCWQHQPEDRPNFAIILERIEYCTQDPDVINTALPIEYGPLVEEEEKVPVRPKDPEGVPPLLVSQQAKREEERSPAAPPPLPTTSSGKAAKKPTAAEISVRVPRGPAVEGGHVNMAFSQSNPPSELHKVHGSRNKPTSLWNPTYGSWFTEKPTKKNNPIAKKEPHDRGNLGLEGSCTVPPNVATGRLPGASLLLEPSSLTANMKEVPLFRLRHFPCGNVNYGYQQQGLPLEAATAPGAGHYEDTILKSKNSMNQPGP
Test [13] has as its target Rho-associated protein kinase 1 (Homo sapiens) (UniProt Q13464). In words: Selectivity interaction (KinomeScan (DiscoverX)) EUB0000655a ROCK1. To be noted: at 10 µM.

Each structure is given as a SMILES string.

Chain of Tyrosine-protein kinase ABL1 (P00519 whole entry): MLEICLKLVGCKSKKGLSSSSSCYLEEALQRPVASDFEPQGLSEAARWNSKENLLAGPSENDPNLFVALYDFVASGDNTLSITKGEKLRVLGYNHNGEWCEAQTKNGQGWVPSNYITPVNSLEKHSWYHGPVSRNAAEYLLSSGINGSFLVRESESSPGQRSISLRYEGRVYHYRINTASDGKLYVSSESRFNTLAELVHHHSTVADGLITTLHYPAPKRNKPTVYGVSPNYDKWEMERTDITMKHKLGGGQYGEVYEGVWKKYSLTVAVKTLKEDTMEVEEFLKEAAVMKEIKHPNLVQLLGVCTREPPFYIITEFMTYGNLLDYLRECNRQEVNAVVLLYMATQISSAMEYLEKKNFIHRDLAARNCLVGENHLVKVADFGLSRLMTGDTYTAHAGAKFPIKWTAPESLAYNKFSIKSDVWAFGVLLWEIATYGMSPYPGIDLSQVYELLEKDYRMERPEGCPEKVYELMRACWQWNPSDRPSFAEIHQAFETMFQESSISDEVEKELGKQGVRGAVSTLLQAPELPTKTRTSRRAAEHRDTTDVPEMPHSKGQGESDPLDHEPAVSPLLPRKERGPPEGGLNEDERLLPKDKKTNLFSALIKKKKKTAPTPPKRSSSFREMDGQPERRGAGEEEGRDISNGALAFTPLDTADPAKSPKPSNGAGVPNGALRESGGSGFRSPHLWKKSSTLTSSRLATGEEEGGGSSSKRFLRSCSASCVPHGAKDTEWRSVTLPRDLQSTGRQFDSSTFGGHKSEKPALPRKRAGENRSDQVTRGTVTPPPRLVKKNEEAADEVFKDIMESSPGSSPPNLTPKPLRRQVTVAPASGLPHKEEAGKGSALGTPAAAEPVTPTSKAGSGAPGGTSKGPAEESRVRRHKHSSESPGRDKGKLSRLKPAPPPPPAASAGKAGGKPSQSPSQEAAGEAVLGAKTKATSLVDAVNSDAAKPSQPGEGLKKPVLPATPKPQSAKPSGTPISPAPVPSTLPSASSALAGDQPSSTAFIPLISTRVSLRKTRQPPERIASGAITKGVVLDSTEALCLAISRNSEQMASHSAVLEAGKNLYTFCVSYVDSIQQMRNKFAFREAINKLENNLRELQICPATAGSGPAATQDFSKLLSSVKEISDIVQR

Take `Cn1cc(-n2cnc3c(NCc4nc5cc(Cl)c(Cl)cc5[nH]4)nc(N4CCOCC4)nc32)cn1`: in test [1], the % of inhibition came to 4.54%. Further, the % of control in test [2] was 3.78%.
With `COCC(=O)NC/C=C/c1ccc2ncnc(Nc3ccc(Oc4ccc(C)nc4)c(C)c3)c2c1` [CP-724714], the % of control in test [3] stood at 91%.
In turn, `N#Cc1cccc(-c2c[nH]c3ncnc(N4CCOCC4)c23)c1` yielded a % of control in test [4] of 100%.
Consider `Cc1cc(F)c(C(=O)Nc2cccc(-c3nncn3C(C)C)n2)cc1-n1cnc(C2CC2)c1`, for which, in [5], the % of control came out at 100%.
In the case of `CNC(=O)Nc1ccc(-c2nc(N3CC4CCC(C3)O4)c3cnn(C4CCC5(CC4)OCCO5)c3n2)cc1`, in test [6], the % of inhibition was found to be 4%.
In the case of `CCc1cc(Nc2nccc(-c3c(-c4ccc(OC)c(C(=O)Nc5c(F)cccc5F)c4)nc4ccccn34)n2)c(OC)cc1N1CCC(N2CCN(S(C)(=O)=O)CC2)CC1`, the % of inhibition in test [7] was 38%.
In the case of `CC[C@@H]1[C@H](F)C(=O)N[C@@H]1COc1nccc2cc(C(N)=O)c(OC)cc12` [ZIMLOVISERTIB], the % of inhibition was determined as 52% in [8] and 2.96% in test [9].
Consider `CN1Cc2nccc(-c3cn(C)nc3-c3ccc(F)cc3)c2C1=O`, for which the % of inhibition in test [10] is -1%.
Take `COc1cc(Nc2nc(C)cc(-c3cnn4nc(OC)ccc34)n2)cc(C(F)(F)F)c1`: the % of control at Misshapen-like kinase 1 amounted to 79%.
As for `Cc1ccc(-c2ccc3c(ccc4sc5c(c43)NC[C@@H](C)NC5=O)n2)cn1`, in test [11], the % of inhibition stood at 24%.
For the molecule `CN(C)CCOc1ccc(-c2nc(-c3ccncc3)c(-c3ccc4c(c3)CC/C4=N\O)[nH]2)cc1`, the % of control stood at 45% in [12] and 77% in test [13].
